Experimental data from patent publication US20240307374A1, “FORMULATION OF FURIN INHIBITOR FOR INHALATION” (BP ASSET V, INC., priority 2021, published 2024).
Values after ≈ are worked out from the molar mass of the structure shown. “Also recorded” adds a separate entry of the source. Like-named read-outs stand apart in the source and are kept apart here. Marks after values point to notes of the source that are not given here.

How the values were obtained:
Format in all cases: physicochemical
[1] = Equilibrium solubility in pH buffers (pH 4.0-6.0) with pH adjustment; conditions: for S: solubility: RT, with pH adjustment
Experimental: In details, ˜5 mg of solids were suspended into 1 mL of each medium with dosing conc. at ˜5 mg/mL. Additional solids were added into the sample to generate suspension if clear solution was obtained. The suspension was equilibrated via stirring (1000 rpm) for 24 hours. The pH of the suspension was adjusted when the final pH shifted above 0.3, and the samples were stirred for another 1.5 hours after pH adjustment. The suspension was centrifuged to obtain precipitate and supernatants. Solubility, purity and pH were tested for the supernatants after filtration, and isolated precipitate was tested by XRPD.
• 1. pH=3.0 buffer (50 mM HCl+KCl): Weigh 365.39 mg KCl into a 100 mL volumetric flask (VF), and add 0.1 mL 1M HCl into the VF, and dilute to volume with water. • 2. pH=4.0 buffer (50 mM citrate): Weigh 56.74 mg citric acid and 60.18 mg trisodium citrate into a 10 mL volumetric flask, and dilute to volume with water. • 3. pH=5.0 buffer (50 mM citrate) Weigh 11.12 mg citric acid and 95.38 mg trisodium citrate into a 10 mL volumetric flask, and dilute to volume with water. • 4. pH=6.0 buffer (50 mM citrate) Weigh 11.04 mg citric acid and 130.2 mg trisodium citrate into a 10 mL volumetric flask, and dilute to volume with water. • 5. pH=6.0 buffer (50 mM phosphate) Weigh 8.7 mg Na2HPO4 and 52.6 mg NaH2PO4 into a 10 mL volumetric flask, and dilute to volume with water. • 6. pH=7.0 buffer (50 mM phosphate) Weigh 23.47 mg Na2HPO4 and 43.34 mg NaH2PO4into a 10 mL volumetric flask, and dilute to volume with water. • 7. pH=8.0 buffer (50 mM phosphate) Weigh 31.64 mg Na2HPO4 and 67.18 mg NaH2PO4into a 10 mL volumetric flask, and dilute to volume with water.

[2] = Thermodynamic relationships study: slurry competition in acetone/H2O systems; conditions: RT
Experimental: Slurry competition was conducted in acetone/H2O systems with various water activities (0.0-1.0). […] Solids were separated and tested by XRPD.
To measure the solubility of freeform in acetone/H2O systems with various water activities, the above experiments were re-performed with addition of aw=0.3 acetone/H2O system. The suspension sample was centrifuged to obtain precipitate and supernatants. Solubility was tested for the supernatants after filtration, and isolated precipitate was tested by XRPD.
Solids were separated and tested by XRPD.

[3] = Solubility profile of freeform Type D in citrate buffers; conditions: for solubility at 24 h: thermodynamic from solid, read-out: Solubility
Experimental: Additional solids were added into the sample to generate suspension if clear solution was obtained. The suspension was equilibrated via stirring (1000 rpm) for 24 hours. The suspension was centrifuged to obtain precipitate and supernatants. Solubility and pH were tested for the supernatants after filtration, and the isolated precipitate was tested by XRPD.

[4] = pH = 4.0 buffer (50 mM citrate)
[5] = pH = 5.0 buffer (50 mM citrate)
[6] = pH = 6.0 buffer (50 mM citrate)
[7] = pH = 6.0 buffer (50 mM phosphate)

Compound: CC(=O)NCC1CCN(Cc2cc(Oc3ccc(N4CCN(CCC(=O)O)CC4)nc3)nc(-c3cc(Cl)cc(Cl)c3)c2)CC1 [Freeform Type A]
- form change after equilibrium in all media ([1]; all media, 24 hours): No form change
- Area % (purity of supernatant) [1, 4]: 99.9 Area %
- pH (final, after adjustment where adjusted) [1, 4]: 4.2*
- pH before adjustment (in brackets) ([1]; pH = 4.0 buffer (50 mM citrate), 24 hours): (5.0)
- S: solubility [1, 4]: >36.9^# mg/mL
- Area % (purity of supernatant) [1, 5]: 99.6 Area %
- FC: form change (XRPD of precipitate) [1, 5]: N (N: solid form not changed)
- pH (final, after adjustment where adjusted) [1, 5]: 5.2
- S: solubility [1, 5]: 3.31 mg/mL
- Area % (purity of supernatant) [1, 6]: 99.6 Area %
- FC: form change (XRPD of precipitate) [1, 6]: N (N: solid form not changed)
- pH (final, after adjustment where adjusted) [1, 6]: 6.0
- S: solubility [1, 6]: 0.15 mg/mL
- Area % (purity of supernatant) [1, 7]: 99.3 Area %
- FC: form change (XRPD of precipitate) [1, 7]: N (N: solid form not changed)
- pH (final, after adjustment where adjusted) [1, 7]: 6.0
- S: solubility [1, 7]: 0.11 mg/mL

Compound: CC(=O)NCC1CCN(Cc2cc(Oc3ccc(N4CCN(CCC(=O)O)CC4)nc3)nc(-c3cc(Cl)cc(Cl)c3)c2)CC1 [Freeform Type D]
- thermodynamic relationship of the forms [2]: thermodynamic form at the ambient conditions; also recorded: more stable hydrate form compared to freeform Type A
- solubility at 24 h ([3]; 50 mM citrate buffer, pH 4.89, aqueous buffer): 13200 µg/mL (≈ 20.6 mM)
- form change after equilibrium in all citrate buffers (XRPD) ([3]; 10/20/50/100 mM citrate buffers, 24 hours): No form change
- solubility at 24 h ([3]; aqueous buffer, 10 mM citrate buffer, buffer pH 2.88, RT, 24 hours, end pH 4.47): 8600 µg/mL (≈ 13.4 mM)
- solubility at 24 h ([3]; aqueous buffer, 10 mM citrate buffer, buffer pH 3.34, RT, 24 hours, end pH 4.57): 4000 µg/mL (≈ 6.23 mM)
- solubility at 24 h ([3]; aqueous buffer, 10 mM citrate buffer, buffer pH 3.89, RT, 24 hours, end pH 4.76): 3400 µg/mL (≈ 5.3 mM)
- solubility at 24 h ([3]; aqueous buffer, 10 mM citrate buffer, buffer pH 4.30, RT, 24 hours, end pH 4.82): 2100 µg/mL (≈ 3.27 mM)
- solubility at 24 h ([3]; aqueous buffer, 10 mM citrate buffer, buffer pH 4.90, RT, 24 hours, end pH 5.21): 700 µg/mL (≈ 1.09 mM)
- solubility at 24 h ([3]; aqueous buffer, 20 mM citrate buffer, buffer pH 3.02, RT, 24 hours, end pH 4.59): 14000 µg/mL (≈ 21.8 mM)
- solubility at 24 h ([3]; aqueous buffer, 20 mM citrate buffer, buffer pH 3.55, RT, 24 hours, end pH 4.69): 9800 µg/mL (≈ 15.3 mM)
- solubility at 24 h ([3]; aqueous buffer, 20 mM citrate buffer, buffer pH 4.01, RT, 24 hours, end pH 4.67): 5500 µg/mL (≈ 8.57 mM)
- solubility at 24 h ([3]; aqueous buffer, 20 mM citrate buffer, buffer pH 4.60, RT, 24 hours, end pH 4.91): 2300 µg/mL (≈ 3.58 mM)
- solubility at 24 h ([3]; aqueous buffer, 20 mM citrate buffer, buffer pH 4.98, RT, 24 hours, end pH 5.28): 800 µg/mL (≈ 1.25 mM)
- solubility at 24 h ([3]; aqueous buffer, 50 mM citrate buffer, buffer pH 3.76, RT, 24 hours, end pH 4.82): 23800 µg/mL (≈ 37.1 mM)
- solubility at 24 h ([3]; aqueous buffer, 50 mM citrate buffer, buffer pH 4.70, RT, 24 hours, end pH 4.93): 4700 µg/mL (≈ 7.33 mM)
- solubility at 24 h ([3]; aqueous buffer, 50 mM citrate buffer, buffer pH 5.27, RT, 24 hours, end pH 5.33): 800 µg/mL (≈ 1.25 mM)
- solubility at 24 h ([3]; aqueous buffer, 100 mM citrate buffer, buffer pH 3.60, RT, 24 hours, end pH 4.92): 24300 µg/mL (≈ 37.9 mM)
- solubility at 24 h ([3]; aqueous buffer, 100 mM citrate buffer, buffer pH 4.07, RT, 24 hours, end pH 4.88): 56800 µg/mL (≈ 88.5 mM)
- solubility at 24 h ([3]; aqueous buffer, 100 mM citrate buffer, buffer pH 4.51, RT, 24 hours, end pH 5.03): 21200 µg/mL (≈ 33 mM)
- solubility at 24 h ([3]; aqueous buffer, 100 mM citrate buffer, buffer pH 5.03, RT, 24 hours, end pH 5.16): 4400 µg/mL (≈ 6.86 mM)
- solubility at 24 h ([3]; pH 4.7, aqueous buffer, 50 mM citrate buffer, buffer pH 3.23, RT, 24 hours, end pH 4.70): 33200 µg/mL (≈ 51.7 mM)
- solubility at 24 h ([3]; pH 5.5, aqueous buffer, 100 mM citrate buffer, buffer pH 5.42, RT, 24 hours, end pH 5.50): 600 µg/mL (≈ 0.935 mM)
